This is an account of results in US7335770B2, “Triazine compounds and their analogs, compositions, and methods” (Reddy U5 Therapeutics, Inc., priority 2004, dated 2008).

Read-outs that look alike come from different tables or passages of the source. Where only a bound is given, the exact number is not on record here.

In this assay the test system is smooth muscle cells (SMC). The experiment in a line: anti-proliferation assay (perlecan). In kind it is cell-based. The protocol: The activity scale used in Table 3 as follows (numbers are inclusive): “+++” represents IC50 of less than about 3 μM; “++” represents IC50 of between about 3 and about 7 μM; and “+” represents IC50 of greater than about 7 μM. In addition, compounds, to include compositions thereof, encompassed within the scope of structures Ia-XXIVa, respectively, or listed in Tables 1A and 1E may be likewise employed in this embodiment and/or aspect of the present invention. Further, any hydrogen atoms that are required for any atom to attain its usual valence in a structure presented in Table 3, whether a carbon atom or a heteroatom, should be inferred if it is not specifically indicated.
In addition to the above compounds, the following compounds and compositions comprising these compounds are active in an anti-proliferation assay (Perlecan). These compounds and compositions comprising these compounds are, among other things, generally useful for treating cardiovascular disorders associated with proliferative activity. Specifically, these compounds include N^2-cycloheptyl-N^4-(3-fluoro-4-methoxyphenyl)-N^6-methyl-N^6-(1-methyl-piperidin-4-yl)-1,3,5-triazine-2,4,6-triamine, and N^2-cycloheptyl-N^4-methyl-N^4-(1-methyl-piperidin-4-yl)-N^6-naphthalen-2-yl-1,3,5-triazine-2,4,6-triamine.
Methods for identifying the activity and screening for one or more of these compounds or molecules that induce synthesis of proteoglycans such as HSPG (heparan sulfate proteoglycan) are taught in U.S. patent application Ser. No. 10/091,357, which is incorporated herein in its entirety. Assays of effects of compounds in vivo are also taught in the incorporated references and are known to those skilled in the art. In general, methods comprise the addition of such compounds to assays and measurement of HSPG synthesis including, but not limited to, the production of syndecans, glypicans and perlecans, for example, syndecans 1, 2 and 4; and glypican-1. Other assays that can be used to determine the activity of the compounds of the present invention include other methods for measuring the induction of perlecan synthesis. For example, in one assay, perlecan is induced in cells by certain inducers, and the response is measured. Compounds of the present invention are then added to a replicate assay and the effect on perlecan induction is determined. Using such methods, compounds are determined that can either inhibit perlecan, elevate induction of perlecan, or that have no effect at all. Those compounds that are effective as therapeutic agents can then be used in animals, humans or patients with cellular proliferation disease aspects, such as vascular-associated diseases or SMC proliferation pathologies.
Another assay for determining compounds having SMC effects comprises adding a composition suspected of affecting SMC proliferation to smooth muscle cells in growth medium or serum-free medium. The change in cell proliferation can be measured by methods known to those skilled in the art, such as incorporation of labeled nucleotides into dividing cells' DNA, and compared to the proliferation of cells which are not treated with the compound. Other measurements include directly determining levels of HSPG synthesis by measuring the amount or change in amount of HSPG such as with ELISA for HSPGs, and compared to the amount of HSPG synthesis in untreated cells. Other indirect or direct measurement are contemplated by the present invention and are known to those skilled in the art. For example, such methods include, but are not limited to, measurement of RNA levels, RT-PCR, Northern blotting, Western blotting promoter-based assays to identify compounds that affect one or more proteoglycans and assays for proteoglycan biological activity shown by recombinant proteins, partially purified proteins, or lysates from cells expressing proteoglycans in the presence or absence of compounds of interest.

Where [1] appears, read: anti-proliferation assay (perlecan), class of IC50, read-out: Activity (note 1).
The mark [2] stands for this setting: anti-proliferation assay (perlecan), some cells print no unit, read-out: Avg IC-50.

For the molecule `COc1ccc(Nc2nc(NC3CCCCCC3)nc(OC3CCN(C)CC3)n2)cc1Cl` [drawing 576, N-(3-Chloro-4-methoxy-phenyl)-N′-cyclo-heptyl-6-(1-methyl-piper-idin-4-yloxy)-[1,3,5]triazine-2,4-di-amine], the IC50 was 3000 to 7000 nM under setting [1] and 5700 nM under setting [2].
The corresponding values for `COc1ccc(Nc2nc(NC3CCCCCC3)nc(OC3CCCN(C(C)=O)C3)n2)cc1Cl` (centres unmarked) [drawing 577, 1-{3-[4-(3-Chloro-4-methoxy-phenyl-amino)-6-cyclo-heptylamino-[1,3,5]triazin-2-yl-oxy]-piperidin-1-yl}-ethanone] are 3000 to 7000 nM and 6500 nM.
`COc1ccc(Nc2nc(NC3CCCCCC3)nc(OC(C)C)n2)cc1Cl` [drawing 578, N-(3-Chloro-4-methoxy-phenyl)-N′-cyclo-heptyl-6-isopropoxy-[1,3,5]tri-azine-2,4-diamine]: the IC50 runs as follows: under setting [1], 3000 to 7000 nM; under setting [2], 6500 nM.
Turning to `COc1ccc(Nc2nc(NC3CCCCCC3)nc(Oc3ccc(C#CC(C)(C)O)cc3)n2)cc1Cl` [drawing 579, 4-{4-[4-(3-Chloro-4-methoxy-phenyl-amino)-6-cyclo-heptylamino-[1,3,5]triazin-2-yl-oxy]-phenyl}-2-methyl-but-3-yn-2-ol], the IC50 is less than 3000 nM under setting [1] and 1900 nM under setting [2].
The corresponding values for `COc1ccc(Nc2nc(NC3CCCCCC3)nc(Oc3ccccc3C#CC(C)(C)O)n2)cc1Cl` [drawing 580, 4-{2-[4-(3-Chloro-4-methoxy-phenyl-amino)-6-cyclo-heptylamino-[1,3,5]triazin-2-yl-oxy]-phenyl}-2-methyl-but-3-yn-2-ol] are less than 3000 nM and 2800 nM.
In the same order, the values of `CCN1CCCC(Oc2nc(Nc3ccc(OC)c(Cl)c3)nc(NC3CCCCCC3)n2)C1` (centres unmarked) [drawing 581, N-(3-Chloro-4-methoxy-phenyl)-N′-cyclo-heptyl-6-(1-ethyl-piper-idin-3-yloxy)-[1,3,5]triazine-2,4-di-amine] are 3000 to 7000 nM and 4200 nM.
In the same order, the values of `COc1ccc(Nc2nc(NC3CCCCCC3)nc(Oc3ccc(C=O)cc3)n2)cc1Cl` [drawing 582, 4-[4-(3-Chloro-4-methoxy-phenyl-amino)-6-cyclo-heptylamino-[1,3,5]triazin-2-yl-oxy]-benzaldehyde] are 3000 to 7000 nM and 4500 nM.
For the molecule `COc1ccc(Nc2nc(NC3CCCCCC3)nc(Oc3ccc(/C=N\O)cc3)n2)cc1Cl` [drawing 583, 4-[4-(3-Chloro-4-methoxy-phenyl-amino)-6-cyclo-heptylamino-[1,3,5]triazin-2-yl-oxy]-benzaldehyde oxime], the IC50 is, setting by setting: under setting [1], less than 3000 nM; under setting [2], 720 nM.
The corresponding values for `COc1ccc(Nc2nc(NC(C)C)nc(Oc3ccc(C#CC(C)(C)O)cc3)n2)cc1Cl` [drawing 584, 4-{4-[4-(3-Chloro-4-methoxy-phenyl-amino)-6-isopropylamino-[1,3,5]tri-azin-2-yloxy]-phenyl}-2-meth-yl-but-3-yn-2-ol] are 3000 to 7000 nM and 3350 nM.
In the same order, the values of `COc1ccc(Nc2nc(NC3CCCCCC3)nc(OCC3CCCO3)n2)cc1Cl` (centres unmarked) [drawing 586, N-(3-Chloro-4-methoxy-phenyl)-N′-cyclo-heptyl-6-(tetrahydro-furan--2-ylmethoxy)-[1,3,5]tri-azine-2,4-diamine] are less than 3000 nM and 1250 nM.
As for `COc1ccc(Nc2nc(NCC3CCCO3)nc(NC3CCCCCC3)n2)cc1Cl` (centres unmarked) [drawing 587, N-(3-Chloro-4-methoxy-phenyl)-N′-cyclo-heptyl-N″-(tetrahydro-furan--2-ylmethyl)-[1,3,5]triazine-2,4,6-tri-amine], the IC50 is less than 3000 nM under setting [1] and 1360 nM under setting [2].
The corresponding values for `COc1ccc(Nc2nc(NCCNC(=O)OC(C)(C)C)nc(NC3CCCCCC3)n2)cc1Cl` [drawing 588, {2-[4-(3-Chloro-4-methoxy-phenyl-amino)-6-cyclo-heptylamino-[1,3,5]triazin-2-yl-amino]-ethyl}-carbamic acidtert-butyl ester] are less than 3000 nM and 1250 nM.
In the same order, the values of `COc1ccc(Nc2nc(NCCN)nc(NC3CCCCCC3)n2)cc1Cl` [drawing 589, N-(2-Amino-ethyl)-N′-(3-Chloro-4-meth-oxy-phenyl)-N″-cyclo-heptyl-[1,3,5]triazine-2,4,6-triamine] are less than 3000 nM and 1000 nM.
The corresponding values for `CCN1CCCC1CNc1nc(Nc2ccc(C)c(F)c2)nc(NC2CCCCCC2)n1` (centres unmarked) [drawing 591, N-Cycloheptyl-N′-(1-ethyl-pyr-rolidin-2-ylmethyl)-N″-(3-fluoro--4-methyl-phenyl)-[1,3,5]tri-azine-2,4,6-triamine] are less than 3000 nM and 2780 nM.
For `Cc1ccc(Nc2nc(NC3CCCCCC3)nc(N(C)C3CCN(C)CC3)n2)cc1F` [drawing 592, N-Cycloheptyl-N′-(3-fluoro-4-meth-yl-phenyl)-N″-methyl-N″-(1-meth-yl-piperidin-4-yl)-[1,3,5]tri-azine-2,4,6-triamine], the IC50 by setting is: under setting [1], less than 3000 nM; under setting [2], 2250 nM.
On to `CN1CCC(N(C)c2nc(Nc3cccc([N+](=O)[O-])c3)nc(NC3CCCCCC3)n2)CC1` [drawing 593, N-Cycloheptyl-N′-methyl-N′-(1-meth-yl-piperidin-4-yl)-N″-(3-ni-tro-phenyl)-[1,3,5]triazine-2,4,6-tri-amine], for which the IC50 was less than 3000 nM under setting [1] and 910 nM under setting [2].
In the case of `COc1ccc(Nc2nc(NCCCCCNC(=O)CCCCC3SCC4NC(=O)NC43)nc(NC3CCCCCC3)n2)cc1Cl` (centres unmarked) [drawing 594, 5-(2-Oxo-hexahydro-thieno[3,4-d]imi-dazol-4-yl)-pentanoic acid {5-[4-(3-chloro-4-methoxy-phenyl-amino)-6-cyclo-heptylamino-[1,3,5]triazin-2-yl-amino]-pentyl}-amide], the IC50 is, setting by setting: (read-out: Activity (note 1)) less than 3000 nM; (read-out: Avg IC-50) 2200 nM.
In the same order, the values of `COc1ccc(Nc2nc(NC3CCCCCC3)nc(NC3CCN(C(=O)CCCCC4SCC5NC(=O)NC54)CC3)n2)cc1Cl` (centres unmarked) [drawing 595] are less than 3000 nM and 710 nM.
In the same order, the values of `COc1ccc(Nc2nc(NNC(=O)CCCCC3SCC4NC(=O)NC43)nc(NC3CCCCCC3)n2)cc1Cl` (centres unmarked) [drawing 596, 5-(2-Oxo-hexahydro-thieno[3,4-d]imi-dazol-4-yl)-pentanoic acidN′-[4-(3-chloro-4-methoxy-phenyl-amino)-6-cyclo-heptylamino-[1,3,5]triazine-2-yl]-hy-drazide] are 3000 to 7000 nM and 5000 nM.
For the molecule `COc1ccc(Nc2nc(NCCNC(=O)CCCCC3SCC4NC(=O)NC43)nc(NC3CCCCCC3)n2)cc1Cl` (centres unmarked) [drawing 597, of 5-(2-Oxo-hexahydro-thi-eno[3,4-d]imidazol-4-yl)-pen-tanoic acid {2,-[4-(3-chloro-4-meth-oxy-phenylamino)-6-cyclo-heptylamino-[1,3,5]triazin-2-yl-amino]-ethyl}-amide], the IC50 is 3000 to 7000 nM under setting [1] and 3200 nM under setting [2].
The corresponding values for `CN1CCC(N(C)c2nc(Nc3cccc(F)c3)nc(NC3CCCCCC3)n2)CC1` [drawing 598, N-Cycloheptyl-N′-(3-fluoro-phe-nyl)-N″-methyl-N″-(1-methyl-piper-idin-4-yl)-[1,3,5]triazine-2,4,6-tri-amine] are less than 3000 nM and 1230 nM.
In the same order, the values of `CCN1CCCC1CNc1nc(NC2CCCCCC2)nc(NC2CCC(O)CC2)n1` (centres unmarked) [drawing 599, 4-{4-Cycloheptylamino-6-[(1-eth-yl-pyrrolidin-2-ylmethyl)-amino]-[1,3,5]triazin-2-ylamino}-cyclo-hexanol] are 3000 to 7000 nM and 4100 nM.
